Test results as given in ChEMBL document CHEMBL3991601, “The target landscape of clinical kinase drugs” (Science, 2017).
Active and inactive are the calls of the source. Cut-off read from the data, not from the text of the source, for most assays here: actives have a measured Kd and inactives only a lower limit.

Key:
[1] = target: T1, Breakpoint cluster region protein (Homo sapiens, UniProt P11274)
T1 sequence (P11274 whole entry): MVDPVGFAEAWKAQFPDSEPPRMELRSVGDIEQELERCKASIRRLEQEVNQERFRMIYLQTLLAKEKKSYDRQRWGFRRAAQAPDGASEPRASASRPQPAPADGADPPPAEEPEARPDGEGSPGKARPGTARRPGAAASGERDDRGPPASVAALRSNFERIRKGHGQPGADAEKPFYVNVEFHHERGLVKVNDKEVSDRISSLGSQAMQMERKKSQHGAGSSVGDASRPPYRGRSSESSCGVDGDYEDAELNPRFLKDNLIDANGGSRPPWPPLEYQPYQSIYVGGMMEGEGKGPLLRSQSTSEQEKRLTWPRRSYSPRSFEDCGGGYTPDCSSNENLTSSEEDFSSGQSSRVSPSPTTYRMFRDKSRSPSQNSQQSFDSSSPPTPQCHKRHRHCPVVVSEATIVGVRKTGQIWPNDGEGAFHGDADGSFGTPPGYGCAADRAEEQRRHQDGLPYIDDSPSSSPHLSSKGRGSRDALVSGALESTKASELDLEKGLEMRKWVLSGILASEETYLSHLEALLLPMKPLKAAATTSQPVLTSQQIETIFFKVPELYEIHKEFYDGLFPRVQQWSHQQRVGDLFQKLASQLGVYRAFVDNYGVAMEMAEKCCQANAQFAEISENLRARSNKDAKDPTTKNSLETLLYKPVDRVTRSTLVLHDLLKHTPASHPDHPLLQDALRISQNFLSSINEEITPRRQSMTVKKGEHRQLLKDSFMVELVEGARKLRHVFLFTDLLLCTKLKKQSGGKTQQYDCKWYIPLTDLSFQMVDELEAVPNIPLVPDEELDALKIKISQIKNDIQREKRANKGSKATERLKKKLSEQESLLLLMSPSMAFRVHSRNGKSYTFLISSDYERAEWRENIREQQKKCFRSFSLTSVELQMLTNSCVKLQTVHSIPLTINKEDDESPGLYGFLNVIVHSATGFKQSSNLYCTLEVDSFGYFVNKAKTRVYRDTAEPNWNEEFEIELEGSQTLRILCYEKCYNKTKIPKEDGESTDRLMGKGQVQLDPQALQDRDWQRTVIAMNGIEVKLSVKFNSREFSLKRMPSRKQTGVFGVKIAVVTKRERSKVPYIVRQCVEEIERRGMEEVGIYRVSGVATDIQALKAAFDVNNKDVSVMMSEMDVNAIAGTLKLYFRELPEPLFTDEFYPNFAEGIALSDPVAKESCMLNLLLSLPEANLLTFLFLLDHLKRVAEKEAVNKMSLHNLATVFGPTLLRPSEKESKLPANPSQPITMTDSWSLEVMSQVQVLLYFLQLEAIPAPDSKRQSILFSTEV

[2] = target: Citron Rho-interacting kinase (Homo sapiens, UniProt O14578)
[3] = target: Dual specificity mitogen-activated protein kinase kinase 2 (Homo sapiens, UniProt P36507)
[4] = target: Ribosomal protein S6 kinase alpha-5 (Homo sapiens, UniProt O75582)
[5] = target: Serine/threonine-protein kinase 16 (Homo sapiens, UniProt O75716)
[6] = target: T2, Succinate--CoA ligase [ADP-forming] subunit beta, mitochondrial (Homo sapiens, UniProt Q9P2R7)
T2 sequence (Q9P2R7 whole entry): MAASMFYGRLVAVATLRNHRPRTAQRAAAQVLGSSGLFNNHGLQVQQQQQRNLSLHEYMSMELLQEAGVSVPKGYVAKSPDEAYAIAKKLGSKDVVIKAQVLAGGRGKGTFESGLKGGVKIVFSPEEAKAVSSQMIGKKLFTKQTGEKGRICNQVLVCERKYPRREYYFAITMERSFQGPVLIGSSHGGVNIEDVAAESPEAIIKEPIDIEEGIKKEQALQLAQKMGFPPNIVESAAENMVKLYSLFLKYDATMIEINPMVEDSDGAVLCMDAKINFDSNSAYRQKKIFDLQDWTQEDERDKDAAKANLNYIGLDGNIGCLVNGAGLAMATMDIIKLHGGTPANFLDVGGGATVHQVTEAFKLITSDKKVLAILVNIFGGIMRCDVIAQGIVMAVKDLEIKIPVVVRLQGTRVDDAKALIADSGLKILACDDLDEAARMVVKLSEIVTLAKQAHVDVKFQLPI

[7] = target: Mitogen-activated protein kinase kinase kinase 20 (Homo sapiens, UniProt Q9NYL2)
Note: in the data inactive means no Kd found up to 30 µM.

Dual specificity mitogen-activated protein kinase kinase 2, sequence (P36507 whole entry): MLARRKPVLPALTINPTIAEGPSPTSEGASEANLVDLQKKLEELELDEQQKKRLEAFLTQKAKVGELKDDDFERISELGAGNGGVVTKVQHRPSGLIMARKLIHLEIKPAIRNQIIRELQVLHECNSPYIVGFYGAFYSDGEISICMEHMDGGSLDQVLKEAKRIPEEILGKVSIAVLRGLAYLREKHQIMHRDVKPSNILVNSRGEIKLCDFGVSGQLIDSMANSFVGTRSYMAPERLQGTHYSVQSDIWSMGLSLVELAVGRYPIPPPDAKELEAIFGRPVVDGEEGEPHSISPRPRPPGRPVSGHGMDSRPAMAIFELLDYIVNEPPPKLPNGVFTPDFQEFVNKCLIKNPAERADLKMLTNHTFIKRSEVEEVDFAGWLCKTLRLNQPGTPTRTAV
Citron Rho-interacting kinase, sequence (O14578 whole entry): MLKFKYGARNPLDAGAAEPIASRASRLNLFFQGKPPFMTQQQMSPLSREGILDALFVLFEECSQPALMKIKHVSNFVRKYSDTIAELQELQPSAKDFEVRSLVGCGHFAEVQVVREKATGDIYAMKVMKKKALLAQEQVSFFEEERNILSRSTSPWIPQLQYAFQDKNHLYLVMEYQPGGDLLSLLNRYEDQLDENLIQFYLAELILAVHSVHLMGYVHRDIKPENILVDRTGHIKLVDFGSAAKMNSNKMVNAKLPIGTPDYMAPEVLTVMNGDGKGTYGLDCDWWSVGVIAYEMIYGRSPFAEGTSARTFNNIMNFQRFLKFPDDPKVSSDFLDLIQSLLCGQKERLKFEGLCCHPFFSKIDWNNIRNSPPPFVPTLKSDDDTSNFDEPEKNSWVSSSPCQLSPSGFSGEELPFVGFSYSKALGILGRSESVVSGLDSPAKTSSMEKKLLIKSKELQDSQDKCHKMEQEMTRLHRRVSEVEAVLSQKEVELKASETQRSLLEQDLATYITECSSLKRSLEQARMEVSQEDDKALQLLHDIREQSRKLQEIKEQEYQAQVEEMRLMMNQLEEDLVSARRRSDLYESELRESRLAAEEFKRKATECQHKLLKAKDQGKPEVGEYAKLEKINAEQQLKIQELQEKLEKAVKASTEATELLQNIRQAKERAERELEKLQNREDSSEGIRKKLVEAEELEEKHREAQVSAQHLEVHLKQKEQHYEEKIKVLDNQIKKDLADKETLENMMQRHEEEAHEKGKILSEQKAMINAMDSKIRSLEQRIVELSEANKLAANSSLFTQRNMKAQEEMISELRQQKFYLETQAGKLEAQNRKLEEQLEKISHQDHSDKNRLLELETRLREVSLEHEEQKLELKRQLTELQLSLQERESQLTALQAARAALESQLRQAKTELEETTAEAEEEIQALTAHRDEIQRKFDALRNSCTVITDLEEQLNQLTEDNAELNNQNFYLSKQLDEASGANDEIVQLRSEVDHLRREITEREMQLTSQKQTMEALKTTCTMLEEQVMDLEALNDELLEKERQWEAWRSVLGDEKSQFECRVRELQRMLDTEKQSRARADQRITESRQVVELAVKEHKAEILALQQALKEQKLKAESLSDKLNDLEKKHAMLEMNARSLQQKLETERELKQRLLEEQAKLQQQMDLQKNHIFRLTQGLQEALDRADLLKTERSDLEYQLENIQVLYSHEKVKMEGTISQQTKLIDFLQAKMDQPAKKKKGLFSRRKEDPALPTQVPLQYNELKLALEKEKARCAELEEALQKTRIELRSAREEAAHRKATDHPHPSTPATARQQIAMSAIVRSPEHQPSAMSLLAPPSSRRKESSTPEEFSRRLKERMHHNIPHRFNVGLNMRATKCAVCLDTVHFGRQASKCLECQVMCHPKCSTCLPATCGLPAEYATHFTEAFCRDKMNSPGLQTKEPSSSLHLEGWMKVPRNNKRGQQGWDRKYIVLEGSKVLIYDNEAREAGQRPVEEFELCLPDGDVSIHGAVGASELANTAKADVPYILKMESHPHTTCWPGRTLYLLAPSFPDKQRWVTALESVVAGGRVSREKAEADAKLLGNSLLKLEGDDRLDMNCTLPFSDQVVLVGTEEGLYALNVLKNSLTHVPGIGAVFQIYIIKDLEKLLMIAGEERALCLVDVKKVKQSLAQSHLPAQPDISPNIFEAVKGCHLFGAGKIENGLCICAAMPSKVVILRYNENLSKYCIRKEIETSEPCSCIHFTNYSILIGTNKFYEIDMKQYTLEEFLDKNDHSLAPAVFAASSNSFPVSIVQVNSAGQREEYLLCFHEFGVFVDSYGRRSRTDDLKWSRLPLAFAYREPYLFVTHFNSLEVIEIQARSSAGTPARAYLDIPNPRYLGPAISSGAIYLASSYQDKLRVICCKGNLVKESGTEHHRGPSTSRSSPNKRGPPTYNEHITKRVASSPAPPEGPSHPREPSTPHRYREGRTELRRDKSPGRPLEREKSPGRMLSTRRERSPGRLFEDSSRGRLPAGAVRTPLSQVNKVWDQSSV
Ribosomal protein S6 kinase alpha-5, sequence (O75582 whole entry): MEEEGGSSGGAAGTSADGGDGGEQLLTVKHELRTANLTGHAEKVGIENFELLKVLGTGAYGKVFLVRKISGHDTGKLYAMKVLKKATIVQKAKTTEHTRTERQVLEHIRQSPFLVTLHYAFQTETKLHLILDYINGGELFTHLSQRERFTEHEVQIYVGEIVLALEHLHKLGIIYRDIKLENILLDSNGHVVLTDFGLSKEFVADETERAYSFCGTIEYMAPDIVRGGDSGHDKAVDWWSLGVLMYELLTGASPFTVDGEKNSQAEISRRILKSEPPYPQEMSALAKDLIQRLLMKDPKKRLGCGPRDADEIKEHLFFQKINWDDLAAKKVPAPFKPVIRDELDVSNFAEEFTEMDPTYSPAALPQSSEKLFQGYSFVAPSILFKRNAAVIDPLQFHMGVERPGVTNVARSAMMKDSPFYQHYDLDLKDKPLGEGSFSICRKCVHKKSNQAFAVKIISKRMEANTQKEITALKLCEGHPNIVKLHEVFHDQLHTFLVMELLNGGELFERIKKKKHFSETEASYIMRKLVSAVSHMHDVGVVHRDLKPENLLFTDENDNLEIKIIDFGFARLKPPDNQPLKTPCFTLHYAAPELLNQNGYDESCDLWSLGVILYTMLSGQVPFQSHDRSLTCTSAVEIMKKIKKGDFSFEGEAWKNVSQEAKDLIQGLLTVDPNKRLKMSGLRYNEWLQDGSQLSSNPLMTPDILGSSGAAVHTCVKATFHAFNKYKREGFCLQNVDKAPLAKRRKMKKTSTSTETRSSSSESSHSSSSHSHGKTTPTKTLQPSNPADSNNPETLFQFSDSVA
Mitogen-activated protein kinase kinase kinase 20, sequence (Q9NYL2 whole entry): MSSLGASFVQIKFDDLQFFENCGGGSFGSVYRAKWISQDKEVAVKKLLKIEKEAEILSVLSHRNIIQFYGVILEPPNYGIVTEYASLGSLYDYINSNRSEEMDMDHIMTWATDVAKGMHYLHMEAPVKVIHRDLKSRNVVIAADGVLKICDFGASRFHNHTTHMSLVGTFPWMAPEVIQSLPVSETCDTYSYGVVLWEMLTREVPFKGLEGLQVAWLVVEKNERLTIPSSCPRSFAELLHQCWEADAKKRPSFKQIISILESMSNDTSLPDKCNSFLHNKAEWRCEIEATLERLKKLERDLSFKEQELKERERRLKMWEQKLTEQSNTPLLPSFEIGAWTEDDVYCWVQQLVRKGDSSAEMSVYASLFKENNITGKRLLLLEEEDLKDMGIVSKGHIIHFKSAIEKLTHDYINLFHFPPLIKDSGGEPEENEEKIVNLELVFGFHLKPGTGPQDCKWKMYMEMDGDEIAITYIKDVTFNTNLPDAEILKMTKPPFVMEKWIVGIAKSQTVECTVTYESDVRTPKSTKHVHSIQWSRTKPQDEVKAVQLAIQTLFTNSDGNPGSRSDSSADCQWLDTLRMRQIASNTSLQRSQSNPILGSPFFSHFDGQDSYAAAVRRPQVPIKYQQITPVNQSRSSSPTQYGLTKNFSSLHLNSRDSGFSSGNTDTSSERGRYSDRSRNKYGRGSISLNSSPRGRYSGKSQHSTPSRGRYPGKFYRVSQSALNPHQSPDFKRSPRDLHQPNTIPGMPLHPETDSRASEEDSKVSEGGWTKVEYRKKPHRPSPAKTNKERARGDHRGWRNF
Serine/threonine-protein kinase 16, sequence (O75716 whole entry): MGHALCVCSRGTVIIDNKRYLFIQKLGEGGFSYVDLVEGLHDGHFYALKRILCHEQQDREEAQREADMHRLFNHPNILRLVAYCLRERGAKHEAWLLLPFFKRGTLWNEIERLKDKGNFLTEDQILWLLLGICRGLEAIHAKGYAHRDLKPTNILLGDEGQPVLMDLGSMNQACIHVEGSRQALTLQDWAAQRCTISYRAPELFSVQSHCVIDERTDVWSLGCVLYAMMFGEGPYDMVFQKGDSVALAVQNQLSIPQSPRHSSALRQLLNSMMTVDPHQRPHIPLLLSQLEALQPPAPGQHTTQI

Kd [1]	Kd [2]	Kd [3]	Kd [4]	Kd [5]	Kd [6]	Kd [7]	Compound
> 30 µM (inactive)	> 30 µM (inactive)	> 30 µM (inactive)	> 30 µM (inactive)	> 30 µM (inactive)	> 30 µM (inactive)	> 30 µM (inactive)	Cc1cc2c(F)c(Oc3ncnn4cc(OC[C@@H](C)OC(=O)[C@H](C)N)c(C)c34)ccc2[nH]1 [BRIVANIB ALANINATE]
> 30 µM (inactive)	> 30 µM (inactive)	> 30 µM (inactive)	> 30 µM (inactive)	> 30 µM (inactive)	> 30 µM (inactive)	> 30 µM (inactive)	Cc1ccc(S(=O)(=O)Nc2nc3ccccc3nc2Nc2ccc3nsnc3c2)cc1
> 30 µM (inactive)	> 30 µM (inactive)	> 30 µM (inactive)	> 30 µM (inactive)	> 30 µM (inactive)	> 30 µM (inactive)	> 30 µM (inactive)	Cc1c(F)cc(C(=O)NC2CC2)cc1-c1ccc(C(=O)NCC(C)(C)C)cn1 [LOSMAPIMOD]
> 30 µM (inactive)	> 30 µM (inactive)	> 30 µM (inactive)	> 30 µM (inactive)	> 30 µM (inactive)	> 30 µM (inactive)	> 30 µM (inactive)	COc1cc(N2CCC(N3CCN(C)CC3)CC2)ccc1Nc1ncnc(Nc2ccccc2S(=O)(=O)C(C)C)n1 [ASP-3026]
> 30 µM (inactive)	> 30 µM (inactive)	> 30 µM (inactive)	> 30 µM (inactive)	> 30 µM (inactive)	> 30 µM (inactive)	> 30 µM (inactive)	CCn1c(=O)c(-c2cc[nH]n2)cc2c(C)nc(N)nc21 [VOXTALISIB]
0.495 µM (active)	> 30 µM (inactive)	> 30 µM (inactive)	> 30 µM (inactive)	> 30 µM (inactive)	> 30 µM (inactive)	13.6 µM (active)	CCN1CCN(Cc2ccc(-c3cc4c(N[C@H](C)c5ccccc5)ncnc4[nH]3)cc2)CC1 [AEE-788]
> 30 µM (inactive)	> 30 µM (inactive)	5.25 µM (active)	> 30 µM (inactive)	> 30 µM (inactive)	> 30 µM (inactive)	> 30 µM (inactive)	O=C1NC(=O)/C(=C/c2ccc3nccc(-c4ccncc4)c3c2)S1 [GSK-1059615]
> 30 µM (inactive)	> 30 µM (inactive)	> 30 µM (inactive)	> 30 µM (inactive)	> 30 µM (inactive)	> 30 µM (inactive)	> 30 µM (inactive)	CN1CCC(CNc2ccc3ncc(-c4cccc(OC(F)(F)F)c4)n3n2)CC1 [SGI-1776]
> 30 µM (inactive)	> 30 µM (inactive)	> 30 µM (inactive)	> 30 µM (inactive)	> 30 µM (inactive)	> 30 µM (inactive)	> 30 µM (inactive)	O=c1sn(-c2cccc3ccccc23)c(=O)n1Cc1ccccc1 [TIDEGLUSIB]
> 30 µM (inactive)	> 30 µM (inactive)	> 30 µM (inactive)	> 30 µM (inactive)	> 30 µM (inactive)	> 30 µM (inactive)	> 30 µM (inactive)	C[C@@H](c1ccc2nccn2c1)n1nnc2ncc(-c3cnn(C)c3)nc21 [SAVOLITINIB]
> 30 µM (inactive)	> 30 µM (inactive)	> 30 µM (inactive)	> 30 µM (inactive)	> 30 µM (inactive)	> 30 µM (inactive)	> 30 µM (inactive)	CN(C)C(=O)c1cc2cnc(Nc3ccc(N4CCNCC4)cn3)nc2n1C1CCCC1 [RIBOCICLIB]
> 30 µM (inactive)	> 30 µM (inactive)	> 30 µM (inactive)	> 30 µM (inactive)	> 30 µM (inactive)	> 30 µM (inactive)	> 30 µM (inactive)	CC[C@H](Nc1ncnc2[nH]cnc12)c1nc2cccc(F)c2c(=O)n1-c1ccccc1 [IDELALISIB]
> 30 µM (inactive)	> 30 µM (inactive)	> 30 µM (inactive)	> 30 µM (inactive)	> 30 µM (inactive)	> 30 µM (inactive)	> 30 µM (inactive)	Cn1cc(-c2ccc3nnc(C(F)(F)c4ccc5ncccc5c4)n3n2)cn1 [JNJ-38877605]
0.858 µM (active)	> 30 µM (inactive)	> 30 µM (inactive)	> 30 µM (inactive)	> 30 µM (inactive)	> 30 µM (inactive)	> 30 µM (inactive)	COCCNCc1ccc(-c2cc3nccc(Oc4ccc(NC(=S)NC(=O)Cc5ccc(F)cc5)cc4F)c3s2)nc1 [GLESATINIB]
> 30 µM (inactive)	> 30 µM (inactive)	> 30 µM (inactive)	> 30 µM (inactive)	> 30 µM (inactive)	> 30 µM (inactive)	> 30 µM (inactive)	N[C@@H]1CCCN(c2c(/C=C3\SC(=O)NC3=O)cccc2-c2ccccc2)C1
> 30 µM (inactive)	> 30 µM (inactive)	> 30 µM (inactive)	> 30 µM (inactive)	> 30 µM (inactive)	> 30 µM (inactive)	> 30 µM (inactive)	CNC(=O)CN1CCC(Oc2cc3c(Nc4cccc(Cl)c4F)ncnc3cc2OC)CC1 [SAPITINIB]
> 30 µM (inactive)	> 30 µM (inactive)	> 30 µM (inactive)	> 30 µM (inactive)	> 30 µM (inactive)	> 30 µM (inactive)	> 30 µM (inactive)	CC[C@@H]1C(=O)N(C)c2cnc(Nc3ccc(C(=O)N[C@H]4CC[C@H](N5CCN(CC6CC6)CC5)CC4)cc3OC)nc2N1C(C)C [VOLASERTIB]
> 30 µM (inactive)	> 30 µM (inactive)	> 30 µM (inactive)	> 30 µM (inactive)	> 30 µM (inactive)	> 30 µM (inactive)	> 30 µM (inactive)	C[C@@H]1CN(Cc2ccc(F)cc2)[C@@H](C)CN1C(=O)c1cc2c(C(=O)C(=O)N(C)C)cn(C)c2cc1Cl [TALMAPIMOD]

Compound	Kd [1]	Kd [2]	Kd [3]	Kd [4]	Kd [5]	Kd [6]	Kd [7]
C=CC(=O)N1CCC(Oc2cc3c(Nc4ccc(Cl)c(Cl)c4F)ncnc3cc2OC)CC1 [POZIOTINIB]	> 30 µM (inactive)	> 30 µM (inactive)	> 30 µM (inactive)	> 30 µM (inactive)	> 30 µM (inactive)	> 30 µM (inactive)	> 30 µM (inactive)
CN1CC[C@@H](c2c(O)cc(O)c3c(=O)cc(-c4ccccc4Cl)oc23)[C@@H]1CO	> 30 µM (inactive)	> 30 µM (inactive)	> 30 µM (inactive)	> 30 µM (inactive)	> 30 µM (inactive)	> 30 µM (inactive)	> 30 µM (inactive)
Cc1cc(-c2cc(O)ccc2Cl)cc2nnc(Nc3ccc(OCCN4CCCC4)cc3)nc12	0.001 µM (active)	0.003 µM (active)	> 30 µM (inactive)	> 30 µM (inactive)	> 30 µM (inactive)	> 30 µM (inactive)	> 30 µM (inactive)
O=C(c1ccc(F)c(F)c1Nc1ccc(I)cc1F)N1CC(O)([C@@H]2CCCCN2)C1 [COBIMETINIB]	> 30 µM (inactive)	> 30 µM (inactive)	0.022 µM (active)	> 30 µM (inactive)	> 30 µM (inactive)	> 30 µM (inactive)	> 30 µM (inactive)
CN1CCC(COc2cnc(-c3cccc(Cn4nc(-c5cccc(C#N)c5)ccc4=O)c3)nc2)CC1 [TEPOTINIB]	> 30 µM (inactive)	> 30 µM (inactive)	> 30 µM (inactive)	> 30 µM (inactive)	> 30 µM (inactive)	> 30 µM (inactive)	> 30 µM (inactive)
